Experimental data taken from patent publication EP0397859A1, “PYRAZINE DERIVATIVES AND MEDICINAL PREPARATION CONTAINING SAME” (TERUMO KABUSHIKI KAISHA, priority 1987, dated 1989).
Where two headings read alike, the source gives them in different places.

Assays:
platelet aggregation = test: Platelet aggregation-inhibiting action in rabbit platelet-rich plasma (aggregometer); type: cell-based; settings: Oryctolagus cuniculus, 0.05 h, rabbit PRP, 37°C, 3 min incubation
Method: Blood was drawn from the carotid artery of a rabbit using a syringe containing 1/10 volume of a 3.8% solution of sodium citrate. The blood was centrifuged to obtain platelet-rich plasma (PRP: 5 x 10^5 cells/µl).
In a cuvette were placed 200 µl of said PRP and 25 µl of a physiological saline solution. The cuvette was set on an aggregometer and warmed at 37°C for 2 min. Into the cuvette was then added 1.25 µl of an ethanol solution of a pyrazine derivative to be tested. After incubated for 3 min., a solution of a platelet-aggregation inducer, arachidonic acid or collagen, was added thereto. Measurements were made for platelet aggregation using an aggregometer (Hematracer IV; Niko Biosciences K.K.). […] Acetylsalicylic acid was used as a comparison.
The 50% inhibitory concentration as shown in the table means the concentration of the solution of a pyrazine derivative required for inhibiting the aggregation of platelets by introducing said pyrazine derivative when the platelet aggregatiqn in the absence of any pyrazine derivative of the invention is taken as 100%.

cyclooxygenase = molecular target: T1, cyclooxygenase (Oryctolagus cuniculus, UniProt O97554); test: Cyclooxygenase-inhibiting activity, washed platelets as enzyme source, 14C-arachidonic acid, TLC radiochromatogram; type: biochemical; settings: washed rabbit platelets, 37°C for 3 min; sum of radioactivities of prostaglandin E2, prostaglandin D2 and HHT; read-out: 50% inhibitory concentration (mole)
T1 construct: The washed platelets thus produced were used as an enzyme source for cyclooxygenase; from tissue; host or cells: washed platelets from rabbit carotid artery blood
T1 sequence (O97554 31-606): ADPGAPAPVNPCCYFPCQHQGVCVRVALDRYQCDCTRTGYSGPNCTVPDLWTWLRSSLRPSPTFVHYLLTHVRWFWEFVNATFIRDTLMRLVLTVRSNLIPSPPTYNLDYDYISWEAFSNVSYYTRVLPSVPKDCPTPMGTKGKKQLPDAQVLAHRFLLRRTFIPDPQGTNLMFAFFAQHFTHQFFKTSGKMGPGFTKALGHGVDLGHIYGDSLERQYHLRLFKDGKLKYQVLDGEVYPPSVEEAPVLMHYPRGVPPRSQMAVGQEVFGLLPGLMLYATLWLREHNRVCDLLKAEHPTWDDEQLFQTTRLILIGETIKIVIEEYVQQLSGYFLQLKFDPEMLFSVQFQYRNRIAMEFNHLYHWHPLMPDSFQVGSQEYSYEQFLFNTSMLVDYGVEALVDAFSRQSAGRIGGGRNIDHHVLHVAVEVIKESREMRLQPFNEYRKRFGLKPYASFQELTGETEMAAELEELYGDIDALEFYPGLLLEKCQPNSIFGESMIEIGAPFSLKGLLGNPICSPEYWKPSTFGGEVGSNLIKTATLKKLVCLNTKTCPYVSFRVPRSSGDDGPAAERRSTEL
Method: In a centrifuge tube was collected 9 volumes of blood from the carotid artery of a rabbit per volume of a 3.8% solution of sodium citric acid contained therein using a canula. Platelet-rich plasma was obtained by centrifugation. To the platelet-rich plasma was added a 77 mM solution of EDTA in a volume of 1/10 per volume of said plasma. After mixing thoroughly, the mixture was subjected to centrifugation at 2500 r.p.m. at room temperature for 10 min. The supernatant was discarded, and the platelets were suspended in approximately 3 ml of a wash (134 mM of sodium chloride, 15 mM of trisaminomethane, 1 mM of EDTA and 5 mM of D-glucose dissolved in distilled water with a pH adjusted to 7.4 with 1N-hydrogen chloride), and the suspension was centrifuged at 2000 rpm at room temperature for 10 min. The supernatant was discarded, and the precipitated platelets were suspended in a 1/15 M phosphate buffer solution at pH 8.0 to adjust the number of the platelets to 6-8 x 10^5 cells/µl.
The washed platelets thus produced were used as an enzyme source for cyclooxygenase. […]
Development was made with a developing solvent (chloroform/methanol/acetic acid/water = 90:8:1:0.8) by approximately 18 cm, and then the inhibiting activity was determined by measuring sum of the radioactivities of prostaglandin E2' prostaglandin D2 and HHT by a radiochromatogram scanner.

[1] = aggregation caused by arachidonic acid (80 µM), read-out: 50% aggregation-inhibitory concentration (mole) Arachidonic acid
[2] = aggregation caused by collagen (15 µg/ml), read-out: 50% aggregation-inhibitory concentration (mole) Collagen

| IC50 (platelet aggregation; [1]) [nM] | IC50 (platelet aggregation; [2]) [nM] | IC50 (cyclooxygenase) [nM] | SMILES |
| --- | --- | --- | --- |
| 82000 | 34000 |  | Clc1ccc(Cc2cnc(-c3ccccc3)c(-c3ccccc3)n2)cc1 [Example 7, 2,3-diphenyl-5-(p-chlorobenzyl)pyrazine] |
| 260 | 5000 |  | COc1ccc(-c2ncc(C(=O)O)nc2-c2ccc(OC)cc2)cc1 [Example 14, 2,3-bis(p-methoxyphenyl)-pyrazine-5-carboxylic acid] |
| 15 | 24 |  | COc1ccc(-c2nc3c(nc2-c2ccc(OC)cc2)CCCC3)cc1 [Example 3, 2,3-bis(p-methoxyphenyl)-5,6,7,8-tetrahydroquinoxaline] |
| 6000 | 19000 |  | CCc1ncc(-c2ccccc2)nc1-c1ccccc1 [Example 2, 2-ethyl-3,5-diphenylpyrazine] |
| 43000 | 31000 |  | c1ccc(-c2ncc(Cc3cccc4ccccc34)nc2-c2ccccc2)cc1 [Example 10, 2,3-diphenyl-5-(l-naphthyl)methylpyrazine] |
| 4400 | 36000 |  | Clc1ccccc1Cc1cnc(-c2ccccc2)c(-c2ccccc2)n1 [Example 5, 2,3-diphenyl-5-(o-chlorobenzyl)pyrazine] |
| 84000 | 74000 |  | CN(C)c1ccc(Cc2cnc(-c3ccccc3)c(-c3ccccc3)n2)cc1 [Example 9, 2,3-diphenyl-5-(p-dimethylaminobenzyl)pyrazine] |
| 14 | 220 |  | COc1ccc(-c2nc(Cl)c(Cl)nc2-c2ccc(OC)cc2)cc1 [Example 11, 2,3-bis(p-methoxyphenyl)-5,6-dichloropyrazine] |
| 16000 | 100000 |  | Brc1ccc(Cc2cnc(-c3ccccc3)c(-c3ccccc3)n2)cc1 [Example 8, 2,3-diphenyl-5-(p-bromobenzyl)pyrazine] |
| 3 | 130 |  | COC(=O)c1cnc(-c2ccc(OC)cc2)c(-c2ccc(OC)cc2)n1 [Example 15] |
| 38 | 9.8 |  | COc1ccc(-c2nc3ccccc3nc2-c2ccc(OC)cc2)cc1 [Example 4, 2,3-bis(p-methoxyphenyl)quinoxaline] |
| 1700 | 390 |  | CCc1nc(CC)c(-c2ccccc2)nc1-c1ccccc1 [Example 1, 2,6-diethyl-3,5-diphenylpyrazine] |
| 24 | 15 | 5000 | COc1ccc(-c2ncc(C#N)nc2-c2ccc(OC)cc2)cc1 [Example 13, 2,3-bis(p-methoxyphenyl)-5-cyanopyrazine] |
| 3.8 | 9.8 |  | COc1ccc(-c2ncc(Cl)nc2-c2ccc(OC)cc2)cc1 [Example 12, 2,3-bis(p-methoxyphenyl)-5-chloropyrazine] |
| 4500 | 44000 |  | Clc1cccc(Cc2cnc(-c3ccccc3)c(-c3ccccc3)n2)c1 [Example 6, 2,3-diphenyl-5-(m-chlorobenzyl)pyrazine] |
| 1000 | 1000 |  | Cc1cnc(-c2ccc(C#N)cc2)c(-c2ccc(C#N)cc2)n1 [X=-CN, R2=H, R3=-CH3] |
